The record followed here is ChEMBL document CHEMBL4270512, “Harnessing pyrrolidine iminosugars into dimeric structures for the rapid discovery of divalent glycosidase inhibitors” (Eur J Med Chem, 2018).

Molecules are shown by their SMILES. Calls of active or inactive are those of the source. No cut-off for these calls is given here.

As a reminder, the inhibition is the relative decrease from the control value, in per cent. As usually defined, the IC50 is the midpoint of a concentration-inhibition curve. Low readings indicate greater potency in that assay, high ones weaker potency in that assay. As usually defined, the Ki is the equilibrium dissociation constant of an inhibitor or competing ligand from its target.

The subject of experiment [1] is Saccharomyces cerevisiae. Nature of the experiment: Inhibition of Saccharomyces cerevisiae alpha-glucosidase at 0.1 mM using p-nitrophenyl glycopyranoside as substrate preincubated for 5 mins followed by substrate addition and measured after 20 mins by visible absorption spectroscopic analysis.
The target of experiment [2] is T1, Beta-galactosidase (Bos taurus) (UniProt Q58D55).
T1 sequence (whole entry): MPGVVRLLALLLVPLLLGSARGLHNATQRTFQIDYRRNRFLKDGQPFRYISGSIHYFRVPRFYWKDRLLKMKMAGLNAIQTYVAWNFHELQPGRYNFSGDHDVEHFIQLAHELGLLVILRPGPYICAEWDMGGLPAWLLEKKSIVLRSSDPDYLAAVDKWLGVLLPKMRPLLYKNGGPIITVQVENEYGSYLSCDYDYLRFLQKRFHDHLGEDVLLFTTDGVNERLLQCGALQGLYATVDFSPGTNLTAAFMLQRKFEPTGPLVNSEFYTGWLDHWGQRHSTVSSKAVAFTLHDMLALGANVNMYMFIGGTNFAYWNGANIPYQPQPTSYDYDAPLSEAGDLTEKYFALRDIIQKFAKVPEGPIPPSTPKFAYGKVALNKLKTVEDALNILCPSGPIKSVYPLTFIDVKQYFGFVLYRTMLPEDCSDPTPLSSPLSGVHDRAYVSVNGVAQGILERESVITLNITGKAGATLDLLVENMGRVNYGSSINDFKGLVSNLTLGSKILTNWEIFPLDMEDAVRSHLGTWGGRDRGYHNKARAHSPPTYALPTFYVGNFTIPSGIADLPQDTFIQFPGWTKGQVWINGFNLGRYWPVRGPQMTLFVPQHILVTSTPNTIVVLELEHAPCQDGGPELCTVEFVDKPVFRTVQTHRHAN
Nature of the experiment: Inhibition of bovine liver beta-galactosidase at 0.1 mM using p-nitrophenyl glycopyranoside as substrate preincubated for 5 mins followed by substrate addition and measured after 20 mins by visible absorption spectroscopic analysis.

Experiment [3] concerns Cornu aspersum. Nature of the experiment: Inhibition of snail beta-mannosidase at 0.1 mM using p-nitrophenyl glycopyranoside as substrate preincubated for 5 mins followed by substrate addition and measured after 20 mins by visible absorption spectroscopic analysis.
Experiment [4] in a line: Inhibition of human alpha-fucosidase using p-nitrophenyl glycopyranoside as substrate preincubated for 5 mins followed by substrate addition and measured after 20 mins by visible absorption spectroscopic analysis.
A short description of experiment [5]: Uncompetitive inhibition of bovine kidney alpha-fucosidase using p-nitrophenyl glycopyranoside as substrate preincubated for 5 mins followed by substrate addition and measured after 20 mins by Lineweaver-Burk plot analysis. Also noted: species or system Bos taurus.
The target of experiment [6] is Alpha-galactosidase (Coffea arabica) (UniProt Q42656). The experiment in a line: Inhibition of coffee beans alpha-galactosidase at 0.1 mM using p-nitrophenyl glycopyranoside as substrate preincubated for 5 mins followed by substrate addition and measured after 20 mins by visible absorption spectroscopic analysis.
For experiment [7], the system named is Canavalia ensiformis. The experiment in a line: Inhibition of jack beans beta-N-acetylglucosaminidase at 0.1 mM using p-nitrophenyl glycopyranoside as substrate preincubated for 5 mins followed by substrate addition and measured after 20 mins by visible absorption spectroscopic analysis.
The subject of experiment [8] is Aspergillus niger. Nature of the experiment: Inhibition of Aspergillus niger amyloglucosidase at 0.1 mM using p-nitrophenyl glycopyranoside as substrate preincubated for 5 mins followed by substrate addition and measured after 20 mins by visible absorption spectroscopic analysis.
Experiment [9] addresses T2, Alpha-mannosidase (Canavalia ensiformis) (UniProt C0HJB3).
T2 sequence (whole entry): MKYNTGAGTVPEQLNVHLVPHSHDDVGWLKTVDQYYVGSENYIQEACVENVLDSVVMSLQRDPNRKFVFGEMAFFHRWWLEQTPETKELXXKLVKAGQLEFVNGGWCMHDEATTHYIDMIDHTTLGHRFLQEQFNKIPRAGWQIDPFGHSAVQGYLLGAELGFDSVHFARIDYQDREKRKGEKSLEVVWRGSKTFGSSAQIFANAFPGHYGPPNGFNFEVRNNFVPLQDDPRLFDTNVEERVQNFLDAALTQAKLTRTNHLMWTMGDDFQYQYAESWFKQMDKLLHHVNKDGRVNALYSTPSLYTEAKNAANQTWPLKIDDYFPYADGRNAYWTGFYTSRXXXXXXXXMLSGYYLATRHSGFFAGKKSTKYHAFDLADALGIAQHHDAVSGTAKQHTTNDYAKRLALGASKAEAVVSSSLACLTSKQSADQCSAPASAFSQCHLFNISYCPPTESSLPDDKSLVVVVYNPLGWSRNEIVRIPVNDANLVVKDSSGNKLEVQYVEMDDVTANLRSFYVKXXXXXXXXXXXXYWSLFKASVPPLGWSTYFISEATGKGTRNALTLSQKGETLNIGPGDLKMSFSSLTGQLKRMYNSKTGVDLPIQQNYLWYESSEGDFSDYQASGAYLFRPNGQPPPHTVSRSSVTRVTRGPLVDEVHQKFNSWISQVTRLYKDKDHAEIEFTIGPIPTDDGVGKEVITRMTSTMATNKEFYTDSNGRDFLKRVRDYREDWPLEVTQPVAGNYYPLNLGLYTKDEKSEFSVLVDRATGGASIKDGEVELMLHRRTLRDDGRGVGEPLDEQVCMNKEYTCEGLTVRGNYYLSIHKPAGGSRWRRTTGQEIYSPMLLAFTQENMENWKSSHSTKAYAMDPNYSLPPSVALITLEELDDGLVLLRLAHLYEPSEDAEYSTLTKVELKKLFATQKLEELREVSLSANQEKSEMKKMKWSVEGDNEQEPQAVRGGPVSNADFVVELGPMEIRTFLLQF
Nature of the experiment: Inhibition of jack beans alpha-mannosidase at 0.1 mM using p-nitrophenyl glycopyranoside as substrate preincubated for 5 mins followed by substrate addition and measured after 20 mins by visible absorption spectroscopic analysis.

A short description of experiment [10]: Inhibition of bovine kidney alpha-fucosidase using p-nitrophenyl glycopyranoside as substrate preincubated for 5 mins followed by substrate addition and measured after 20 mins by visible absorption spectroscopic analysis. Set-up: species or system Bos taurus.
The test system of experiment [11] is Prunus dulcis. Nature of the experiment: Inhibition of almond beta-glucosidase at 0.1 mM using p-nitrophenyl glycopyranoside as substrate preincubated for 5 mins followed by substrate addition and measured after 20 mins by visible absorption spectroscopic analysis.
For experiment [12], the system named is Oryza sativa. Nature of the experiment: Inhibition of rice beta-glucosidase at 0.1 mM using p-nitrophenyl glycopyranoside as substrate preincubated for 5 mins followed by substrate addition and measured after 20 mins by visible absorption spectroscopic analysis.
A short description of experiment [13]: Competitive inhibition of bovine kidney alpha-fucosidase using p-nitrophenyl glycopyranoside as substrate preincubated for 5 mins followed by substrate addition and measured after 20 mins by Lineweaver-Burk plot analysis. Set-up: species or system Bos taurus.
A short description of experiment [14]: Competitive inhibition of human alpha-fucosidase using p-nitrophenyl glycopyranoside as substrate preincubated for 5 mins followed by substrate addition and measured after 20 mins by Lineweaver-Burk plot analysis.
A short description of experiment [15]: Uncompetitive inhibition of human alpha-fucosidase using p-nitrophenyl glycopyranoside as substrate preincubated for 5 mins followed by substrate addition and measured after 20 mins by Lineweaver-Burk plot analysis.
The species entered for experiment [16] is Bos taurus. The experiment in a line: Inhibition of bovine kidney alpha-fucosidase at 0.120 uM using p-nitrophenyl glycopyranoside as substrate preincubated for 5 mins followed by substrate addition and measured after 20 mins by visible absorption spectroscopic analysis.
The target in experiment [17] is T1, Beta-galactosidase (Bos taurus). The experiment in a line: Inhibition of bovine liver beta-galactosidase at 200 uM using p-nitrophenyl glycopyranoside as substrate preincubated for 5 mins followed by substrate addition and measured after 20 mins by visible absorption spectroscopic analysis relative to control.

Sequence of Alpha-galactosidase (Coffea arabica) (Q42656 16-378 limits assumed): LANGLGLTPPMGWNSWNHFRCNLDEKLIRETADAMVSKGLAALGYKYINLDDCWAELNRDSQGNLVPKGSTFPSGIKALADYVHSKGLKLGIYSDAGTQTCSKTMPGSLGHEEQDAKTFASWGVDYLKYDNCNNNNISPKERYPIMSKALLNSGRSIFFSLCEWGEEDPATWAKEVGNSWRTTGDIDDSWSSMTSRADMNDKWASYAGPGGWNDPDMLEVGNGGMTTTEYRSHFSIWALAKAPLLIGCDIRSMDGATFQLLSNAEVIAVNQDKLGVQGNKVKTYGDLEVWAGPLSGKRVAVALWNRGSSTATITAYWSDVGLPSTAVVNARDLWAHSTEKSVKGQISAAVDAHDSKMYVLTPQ

In the case of `C[C@@H]1N[C@@H](c2c[nH]nn2)[C@H](O)[C@@H]1O`, the inhibition result in experiment [1], in experiment [2], in experiment [3], in [6], in experiment [7] and in experiment [8] was “inactive” throughout. The inhibition result in experiment [9], in experiment [11] and in [12] was “inactive” in each case. For the same compound, the IC50 worked out at 70 µM in experiment [4] and 1 µM in [10]. In addition, the inhibition constant Ki was 4.2 µM in experiment [5], 0.3 µM in experiment [13], 18 µM in [14] and 34 µM in experiment [15].
With `C[C@@H]1N[C@@H](c2cn(CCOCCOCc3cn(-c4cccc(S(=O)(=O)c5cccc(-n6cc(COCCOCCn7cc([C@@H]8N[C@@H](C)[C@@H](O)[C@H]8O)nn7)nn6)c5)c4)nn3)nn2)[C@H](O)[C@@H]1O`, in experiment [16], the inhibition entry was “Active”.
Turning to `C[C@@H]1N[C@@H](c2cn(-c3ccccc3)nn2)[C@H](O)[C@@H]1O`, the inhibition entry in experiment [1], in experiment [2], in experiment [3], in experiment [6], in [7] and in experiment [8] was “inactive” in each case. For the same compound, the inhibition result in experiment [9], in [11] and in experiment [12] was “inactive” in each case. In addition, the IC50 in experiment [4] was 4.2 µM; in experiment [10], 0.019 µM. Besides, the Ki in [5] is 0.066 µM; in experiment [13], 0.0068 µM; in experiment [14], 0.86 µM; in experiment [15] it was 5.5 µM.
`Cc1oc([C@H]2NC[C@@H](O)[C@H]2O)cc1C(=O)NCc1cn(CCOCCOCCOCCOCCOCCn2cc(CNC(=O)c3cc([C@H]4NC[C@@H](O)[C@H]4O)oc3C)nn2)nn1` showed an inhibition in experiment [17] of under 50%.
Take `C#C[C@H]1[C@H](O)[C@H](O)[C@H](C)N1C(=O)OC(C)(C)C`: the Ki was 0.001 µM in [5] and 0.0002 µM in experiment [13].
For the compound `C[C@@H]1N[C@@H](c2cn(-c3ccc(S(=O)(=O)c4ccc(N=[N+]=[N-])cc4)cc3)nn2)[C@H](O)[C@@H]1O`, the inhibition result in experiment [1], in [2], in experiment [3], in experiment [6], in [7] and in experiment [8] was “inactive” in each case. Besides, the inhibition entry in experiment [9], in experiment [11] and in experiment [12] was “inactive” throughout. Moreover, the IC50 in experiment [4] came out at 0.54 µM; in experiment [10], 0.0011 µM. The Ki in experiment [5] stood at 0.001 µM; in experiment [13], 0.0002 µM; in experiment [14] it was 0.073 µM; in [15], 0.58 µM.
In the case of `C[C@@H]1N[C@@H](c2cn(CCOCCOCCOCCn3cc([C@@H]4N[C@@H](C)[C@@H](O)[C@H]4O)nn3)nn2)[C@H](O)[C@@H]1O`, the inhibition entry in experiment [1], in experiment [2], in experiment [3], in experiment [6], in [7] and in experiment [8] was “inactive” each time. The inhibition result in [9], in experiment [11] and in experiment [12] was “inactive” each time. Besides, the IC50 in [4] is 26 µM; in experiment [10] it was 0.12 µM. Also, the Ki in experiment [5] is 0.132 µM; in experiment [13], 0.043 µM; in [14], 4.8 µM; in experiment [15] it was 11.1 µM.
With `C[C@@H]1N[C@@H](c2cn(CCCCCCCCCCCCn3cc([C@@H]4N[C@@H](C)[C@@H](O)[C@H]4O)nn3)nn2)[C@H](O)[C@@H]1O`, the inhibition entry in [16] was “Active”.
Consider `C[C@@H]1N[C@@H](c2cn(CCCCCCn3cc([C@@H]4N[C@@H](C)[C@@H](O)[C@H]4O)nn3)nn2)[C@H](O)[C@@H]1O`, for which the inhibition result in [1], in experiment [2], in [3], in [6], in experiment [7] and in experiment [8] was “inactive” in each case. In addition, the inhibition entry in [9], in experiment [11] and in experiment [12] was “inactive” each time. The IC50 in [4] was determined as 6.8 µM; in [10] it was 0.047 µM. Also, the Ki was found to be 0.24 µM in experiment [5], 0.015 µM in [13], 2.5 µM in experiment [14] and 7.1 µM in experiment [15].
For `Cc1oc([C@H]2NC[C@@H](O)[C@H]2O)cc1C(=O)NCc1cn(CCOCCOCCOCCn2cc(CNC(=O)c3cc([C@H]4NC[C@@H](O)[C@H]4O)oc3C)nn2)nn1`, in [17], the inhibition was under 50%.
Consider `C[C@@H]1N[C@@H](c2cn(CCOCCOCc3cn(CCCCCCCCCCCCn4cc(COCCOCCn5cc([C@@H]6N[C@@H](C)[C@@H](O)[C@H]6O)nn5)nn4)nn3)nn2)[C@H](O)[C@@H]1O`, for which the inhibition result in [16] is “Active”.
